Source: PubChem BioAssay (NCI)
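Values below derive from 48-hour exposures of cells grown in 96-well plates, with endpoints linearly interpolated between the two concentrations bracketing the appropriate inhibition level. GI50: concentration for 50% inhibition of growth. TGI marks complete inhibition of growth.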

How the values were obtained:
Assay in all cases: DTP human tumour cell line panel, 48 h
SF-539 CNS = test system: SF-539 CNS
M14 melanoma = test system: M14 melanoma
HCT-15 colon = test system: HCT-15 colon
UACC-62 melanoma = test system: UACC-62 melanoma
SF-295 CNS = test system: SF-295 CNS
HS 578T breast = test system: HS 578T breast
HT29 colon = test system: HT29 colon
OVCAR-4 ovarian = test system: OVCAR-4 ovarian
LOX IMVI melanoma = test system: LOX IMVI melanoma
OVCAR-8 ovarian = test system: OVCAR-8 ovarian
CAKI-1 renal = test system: CAKI-1 renal
U251 CNS = test system: U251 CNS
K-562 leukemia = test system: K-562 leukemia
NCI-H23 lung = test system: NCI-H23 lung
HCC-2998 colon = test system: HCC-2998 colon
SK-MEL-28 melanoma = test system: SK-MEL-28 melanoma
DU-145 prostate = test system: DU-145 prostate
HCT-116 colon = test system: HCT-116 colon
A498 renal = test system: A498 renal
NCI-H226 lung = test system: NCI-H226 lung
HL-60(TB) leukemia = test system: HL-60(TB) leukemia
MOLT-4 leukemia = test system: MOLT-4 leukemia
NCI/ADR-RES ovarian = test system: NCI/ADR-RES ovarian
SW-620 colon = test system: SW-620 colon
PC-3 prostate = test system: PC-3 prostate
SK-MEL-5 melanoma = test system: SK-MEL-5 melanoma
SNB-75 CNS = test system: SNB-75 CNS
OVCAR-3 ovarian = test system: OVCAR-3 ovarian
786-0 renal = test system: 786-0 renal
HOP-62 NSCLC = test system: HOP-62 NSCLC
SNB-19 CNS = test system: SNB-19 CNS
A549 NSCLC = test system: A549 NSCLC
SN12C renal = test system: SN12C renal
MDA-MB-231 breast = test system: MDA-MB-231 breast
EKVX NSCLC = test system: EKVX NSCLC
SK-MEL-2 melanoma = test system: SK-MEL-2 melanoma
KM12 colon = test system: KM12 colon
IGROV1 ovarian = test system: IGROV1 ovarian
MCF7 breast = test system: MCF7 breast
HOP-92 NSCLC = test system: HOP-92 NSCLC
MALME-3M melanoma = test system: MALME-3M melanoma
NCI-H522 lung = test system: NCI-H522 lung
UACC-257 melanoma = test system: UACC-257 melanoma
BT-549 breast = test system: BT-549 breast
SR leukemia = test system: SR leukemia
NCI-H460 lung = test system: NCI-H460 lung
OVCAR-5 ovarian = test system: OVCAR-5 ovarian
SK-OV-3 ovarian = test system: SK-OV-3 ovarian
COLO 205 colon = test system: COLO 205 colon
CCRF-CEM leukemia = test system: CCRF-CEM leukemia
SF-268 CNS = test system: SF-268 CNS
ACHN renal = test system: ACHN renal
T-47D breast = test system: T-47D breast
TK-10 renal = test system: TK-10 renal
UO-31 renal = test system: UO-31 renal

COc1ccc2[nH]c(-c3ccccc3)c(/C=C(\C#N)S(=O)(=O)c3ccccc3)c2c1
GI50 (SF-539 CNS): 5.48 µM
TGI (SF-539 CNS): 34.7 µM
GI50 (M14 melanoma): 3.72 µM
TGI (M14 melanoma): > 100 µM
GI50 (HCT-15 colon): 4.02 µM
TGI (HCT-15 colon): > 100 µM
GI50 (UACC-62 melanoma): 3.83 µM
TGI (UACC-62 melanoma): 60.7 µM
GI50 (SF-295 CNS): 2.79 µM
TGI (SF-295 CNS): 28.7 µM
GI50 (HS 578T breast): 7.59 µM
TGI (HS 578T breast): 85.5 µM
GI50 (HT29 colon): 3.49 µM
TGI (HT29 colon): > 100 µM
GI50 (OVCAR-4 ovarian): 8.33 µM
TGI (OVCAR-4 ovarian): > 100 µM
GI50 (LOX IMVI melanoma): 7.4 µM
TGI (LOX IMVI melanoma): > 100 µM
GI50 (OVCAR-8 ovarian): 7.96 µM
TGI (OVCAR-8 ovarian): > 100 µM
GI50 (CAKI-1 renal): 4.47 µM
TGI (CAKI-1 renal): 43.4 µM
GI50 (U251 CNS): 4.59 µM
TGI (U251 CNS): > 100 µM
GI50 (K-562 leukemia): 1.42 µM
TGI (K-562 leukemia): > 100 µM
GI50 (NCI-H23 lung): 7.97 µM
TGI (NCI-H23 lung): > 100 µM
GI50 (HCC-2998 colon): 18.7 µM
TGI (HCC-2998 colon): > 100 µM
GI50 (SK-MEL-28 melanoma): 6.05 µM
TGI (SK-MEL-28 melanoma): > 100 µM
GI50 (DU-145 prostate): 10.1 µM
TGI (DU-145 prostate): > 100 µM
GI50 (HCT-116 colon): 3.74 µM
TGI (HCT-116 colon): > 100 µM
GI50 (A498 renal): 9.31 µM
TGI (A498 renal): 44.6 µM
GI50 (NCI-H226 lung): 9.41 µM
TGI (NCI-H226 lung): > 100 µM
GI50 (HL-60(TB) leukemia): 2.38 µM
TGI (HL-60(TB) leukemia): 7.11 µM
GI50 (MOLT-4 leukemia): 4.7 µM
TGI (MOLT-4 leukemia): > 100 µM
GI50 (NCI/ADR-RES ovarian): 3.83 µM
TGI (NCI/ADR-RES ovarian): > 100 µM
GI50 (SW-620 colon): 3.97 µM
TGI (SW-620 colon): > 100 µM
GI50 (PC-3 prostate): 8.3 µM
TGI (PC-3 prostate): > 100 µM
GI50 (SK-MEL-5 melanoma): 3.05 µM
TGI (SK-MEL-5 melanoma): 29.3 µM
GI50 (SNB-75 CNS): 5.92 µM
TGI (SNB-75 CNS): 44.8 µM
GI50 (OVCAR-3 ovarian): 4.96 µM
TGI (OVCAR-3 ovarian): 24.4 µM
GI50 (786-0 renal): 6.07 µM
TGI (786-0 renal): > 100 µM
GI50 (HOP-62 NSCLC): 8.38 µM
TGI (HOP-62 NSCLC): > 100 µM
GI50 (SNB-19 CNS): 13.5 µM
TGI (SNB-19 CNS): > 100 µM
GI50 (A549 NSCLC): 5.98 µM
TGI (A549 NSCLC): > 100 µM
GI50 (SN12C renal): 7.76 µM
TGI (SN12C renal): > 100 µM
GI50 (MDA-MB-231 breast): 7.48 µM
TGI (MDA-MB-231 breast): > 100 µM
GI50 (EKVX NSCLC): 6.86 µM
TGI (EKVX NSCLC): > 100 µM
GI50 (SK-MEL-2 melanoma): 3.7 µM
TGI (SK-MEL-2 melanoma): 20.3 µM
GI50 (KM12 colon): 2.96 µM
TGI (KM12 colon): > 100 µM
GI50 (IGROV1 ovarian): 4.79 µM
TGI (IGROV1 ovarian): 25.5 µM
GI50 (MCF7 breast): 3.93 µM
TGI (MCF7 breast): > 100 µM
GI50 (HOP-92 NSCLC): 6.05 µM
TGI (HOP-92 NSCLC): 36.3 µM
GI50 (MALME-3M melanoma): 19.4 µM
TGI (MALME-3M melanoma): > 100 µM
GI50 (NCI-H522 lung): 3.98 µM
TGI (NCI-H522 lung): 46.7 µM
GI50 (UACC-257 melanoma): 4.92 µM
TGI (UACC-257 melanoma): 69 µM
GI50 (BT-549 breast): 11.6 µM
TGI (BT-549 breast): > 100 µM
GI50 (SR leukemia): 2.21 µM
TGI (SR leukemia): 15.7 µM
GI50 (NCI-H460 lung): 4.55 µM
TGI (NCI-H460 lung): > 100 µM
GI50 (OVCAR-5 ovarian): 37.3 µM
TGI (OVCAR-5 ovarian): > 100 µM
GI50 (SK-OV-3 ovarian): 7.05 µM
TGI (SK-OV-3 ovarian): 66.7 µM
GI50 (COLO 205 colon): 7.35 µM
TGI (COLO 205 colon): > 100 µM
GI50 (CCRF-CEM leukemia): 6.52 µM
TGI (CCRF-CEM leukemia): > 100 µM
GI50 (SF-268 CNS): 13.3 µM
TGI (SF-268 CNS): > 100 µM
GI50 (ACHN renal): 12.9 µM
TGI (ACHN renal): > 100 µM
GI50 (T-47D breast): 5.18 µM
TGI (T-47D breast): > 100 µM
GI50 (TK-10 renal): 17.5 µM
TGI (TK-10 renal): > 100 µM
GI50 (UO-31 renal): 4.03 µM
TGI (UO-31 renal): 34.5 µM
